The test system of test [1] is RNAi-293-EGFP/RFP cells. Briefly: dose-response of GFP/RFP signal ratio in RNAi-293-EGFP/RFP cells. The format is cell-based. The conditions noted are these: at 5 μM; 48 hours; versus Enoxacin 50 μM and 100 μM. As to the method:
FIGS. 11A-11D show drug dose-responses for representative metal/Fe chelators. RNAi-293-EGFP/RFP cells were treated with each compound for 48 hours and the GFP/RFP signal ratio was plotted for relative RNAi-enhancing activity (%) using E50 (Enoxacin at 50 μM) as 100% activity.
An additional chemical library screen was performed to identify enhancers and suppressors of RNAi activity. In this screen, RNAi-293-EGFP cells were treated with compounds from a chemical library and endogenous RNAi activity was measured by GFP readout. Four particular compounds were identified in this screen. Further, all four compounds identified in this screen have metal/Fe chelating ability.
These four compounds were further tested by obtaining a drug dose-response curve for each compound at a wide range of concentrations in RNAi-293-EGFP/RFP. After 48 hours, GFP signals were measured by SpectraMax M2^e (Molecular Devices Corporation, Sunnyvale, Calif.). The GFP signals were then normalized over RFP signals to account for variability of cell numbers among wells and then plotted for relative RNAi-enhancing activity, which is set to 100% for a known RNAi-enhancing small molecule, e.g., Enoxacin at 50 μM.

In test [2] the test system is tumor cell models. Particulars: cited from earlier work.
Test [3] relates to siRNA-mediated mRNA degradation. In words: cell-based reporter screen: human 293 cells stably expressing GFP plus siRNA hairpin against GFP. The conditions noted are these: pilot screen of The Spectrum Collection; FIG. 3, FIG. 4. On the procedure: FIG. 2 discloses one embodiment of the cell-based reporter system of the invention. In this example, a human 293-cell line stably expressing a reporter gene, GFP, was used. This cell line was further transfected with a construct that expresses siRNA hairpin against GFP, which can decrease the level of GFP expression. Individual clones were isolated with greatly (although not completely) reduced GFP expression.
Using the above-identified clones, a screen was performed using The Spectrum Collection (MicroSource Discovery Systems, Inc., Gaylordsville, Conn., United States of America), which contains 2000 biologically active and structurally diverse compounds from libraries of known drugs, experimental bioactives, and pure natural products. For example, in one embodiment, a pilot screen of this library identified one inhibitor and one enhancer of siRNA-mediated mRNA degradation.
To identify the chemical compounds that modulate the siRNA and miRNA pathway, a screening strategy was used. A human 293-cell line stably expressing a reporter gene, GFP, was used. This cell line was further transfected with a construct that expresses siRNA hairpin against GFP, which could knock down the expression of GFP. […] Using these clones, a screen was performed using The Spectrum Collection, which contains 2000 biologically active and structurally diverse compounds from libraries of known drugs, experimental bioactives, and pure natural products.
Human 293 cells stably expressing a reporter gene, GFP, were further transfected with a construct that expresses an siRNA hairpin against GFP, which results in the knock-down of the expression of GFP. Transfected cells containing the siRNA suppressed GPF expression were split and then treated with an effective amount of enoxacin (FIG. 4, second panel) and were grown for a period of 24-48 hours.

The test system of test [4] is Clone#3, 293-EGFP-siGFP cells. Briefly: plate-reader chemical library screen, GFP signal in Clone#3 cells. The format is cell-based, human. The conditions noted are these: 50 mM RNAi-E alone. An excerpt:
Further, in some embodiments, additional screens using the same library can be performed to identify other modulators of the siRNA and the miRNA pathways. In some embodiments, instead of examining the GFP signal visually under a microscope, the GFP signal can be quantified using an automatic plate reader. In such embodiments, two additional rounds of screening can be performed. In the first round of screening, the clones can be treated with compounds from a library, e.g., The Spectrum Collection, alone and the GFP level can be quantified after a period of time, e.g., 48 hours. In the second round of screening, the clones can be treated with compounds from a library, e.g., The Spectrum Collection, in the presence of 50 μM RNAi-E, i.e., enoxacin. This assay enables compounds that can modulate the activity of RNAi-E to be identified.
(§1) The presently disclosed chemical library also was screened using a plate reader to quantify the GFP signal intensity. The following screens were conducted: (1) repeating chemical screen using plate reader to quantify the GFP signal (50 mM each drug); (2) treating cells with 50 mM RNAi-I (30 mM each additional drug); and treating cells with […] (30 mM each additional drug).
(§2) For each screen, two types of cells were used: Clone#3 and EGFP. Clone#3 cells are 293-EGFP-siGFP and could be used to identify the modulators of the RNAi pathway. EGFP cells are 293-EGFP only and were used as a control to eliminate the compounds that could kill the cells or interfere GFP signals that are not related to RNAi pathway. The results for each screen are summarized in Table 2 and Table 3, respectively.
(§3) In these three screens, compounds were identified that could either enhance or inhibit RNAi activity in Clone#3, but had no effect on EGFP cells, which would indicate that these compounds might specifically work on RNAi pathway. The modulation of RNAi activity by these compounds was calculated as the percentage of GFP signal to Clone#3 control cells.

Test [5] deals with EGFP, 293-EGFP cells. Briefly: plate-reader chemical library screen, GFP signal in control EGFP cells. The format is cell-based, human. The conditions noted are these: GFP signal; 50 mM RNAi-E. On the procedure: as §1, §2, §3
Test [6] has as its system shRNA against Luciferase mRNA. In words: GL-3 luciferase reporter in cells expressing shRNA against luciferase. The format is cell-based. The conditions noted are these: FIG. 5. From the text: In this example, a luciferase reporter construct GL-3 was transfected into the cells expressing shRNA against Luciferase mRNA.
(In general: In a reporter assay the amount or activity of a reporter protein is the signal.)

The subject of test [7] is miR-30a-3p. In words: miRNA sensor Luc-T30 dual luciferase assay. The format is cell-based. The conditions noted are these: endogenously expressed miR-30; FIG. 6, FIG. 7. From the text:
(A) Design of a siRNA duplex against miR-30a precursor (siRNA-p) and a control siRNA duplex (siRNA-c). The miR-30a precursor is provided as SEQ ID NO:1. The siRNA target region is represented by nucleotides 21-40 of SEQ ID NO:1. The siRNA-p is provided as SEQ ID NO:2 and the siRNA-c is provided as SEQ ID NO:3. The double stranded siRNA is shown on the bottom and predicted pairing between one siRNA strand (blue) and the precursor target (green).
In FIG. 6, top left panel, the blue arrowheads in Luc-T30 indicate artificial target sequence against miR-30a-3p. Luc-AT30 has an artificial sequence complementary to that in Luc-T30. […] Relative luciferase activity was calculated by dividing the reporter (Firefly) luciferase activity with co-transfected Renilla luciferase activity. Luciferase activity was decreased by transfecting Luc-T30 in HepG2 (orange bars) without changes in the amount of its mRNA (blue bars). Error bars represent the standard deviation (SD) of three triplicate experiments. […] Error bars represent the standard deviation (SD) from three triplicate experiments. **P=0.004; *****P=0.00001.
This reporter contains the target sequence of miR-30. In the miR-30 system, the endogenously expressed miR-30 was used and, in this cell line, miR-30 has been processed completely. Thus, the addition of enoxacin had no effect.

Test [8] deals with miR-125a. Briefly: Lin28 3'-UTR luciferase reporter in cells expressing miR-125a. The class given is cell-based. An excerpt: Referring now to FIG. 8, the 3′-UTR of Lin28 mRNA, a target mRNA of miR-125a, was inserted into the 3′ end of luciferase reporter gene. Lin28-Del is the construct without the target sequence of miR-125a. Lin28 or Lin28-Del was transfected into cells expressing miR-125a. Although RNAi-E had no effect on Lin28-Del, the translation of Lin28 was suppressed by the expression of miR-125a.

Values joined by “and” are separate entries in the source; they are usually repeats but may differ in a detail not shown here. Equal values may be shown once. “Also recorded” adds a separate entry of the source.

Consider `O=C(N/N=C/c1c(O)ccc2ccccc12)c1ccncc1` [compound 311, 2-hydroxy-1-naphthylaldehyde isonicotinoyl hydrazone], for which, in test [1], the “RNAi-enhancing activity relative to Enoxacin” value was “more effective than Enoxacin”. In test [2], the anti-proliferative activity entry is given as “anti-proliferative activity; also recorded: anti-proliferation activity”.
For `CCn1cc(C(=O)O)c(=O)c2cc(F)c(N3CCNCC3)nc21` [enoxacin], in test [3], the “siRNA-mediated mRNA degradation and gene knock-down” value is “enhance siRNA-mediated mRNA degradation and gene knock-down”. Moreover, the “Clone#3, 293-EGFP-siGFP cells GFP signal intensity with RNAi-E” value in test [4] is 20289248 and 16615771 and 18695953 and 20015152. Also, the “EGFP, 293-EGFP cells RNAi-E alone” value in test [5] was 177574932 and 1.78E+08 and 229622488 and 212666320 and 2.13E+08 and 138649048. Moreover, the “knock-down efficiency of shRNA against luciferase mRNA” value in test [6] is “increased the knock-down efficiency”. Further, the “miRNA-mediated translational suppression of Luc-T30 reporter” value in test [7] is listed as “no effect”. Also, the “suppression of the translation of Lin28 by miR-125a” value in test [8] (Lin28 construct, FIG. 8) is recorded as “further enhanced this suppression”. Also, the “effect on Lin28-Del” value in test [8] (construct without the target sequence of miR-125a) is recorded as “no effect”.

These data come from patent US20120071539A1, “COMPOUNDS AND METHODS FOR MODULATING THE SILENCING OF A POLYNUCLEOTIDE OF INTEREST” (Emory University, priority 2006, published 2012).
